Structures can show the parent of a compound that is named as a salt.
Assays:
[1] = Stability test: impurity content by HPLC under storage conditions; type: physicochemical; conditions: for stability under the experimental conditions (conclusion from Tables 2 and 3): high temperature, accelerated, mediated, high humidity and illumination conditions, up to 30 days
Protocol: A crystalline form sample was put in a watch glass in the form of a thin layer of ≦5 mm. The stability test was conducted under different conditions: high temperature (60±2° C.) for 30 days, accelerated condition (40±2° C., 75%±5% humidity) for 30 days, mediated condition (30±2° C., 65%±5% humidity) for 30 days, high humidity (25±2° C., 90%±5%) for 10 days and illumination condition (visible light 4500 lx±500 lx with ultraviolet light not lower than 0.7 W·h/m^2, 25±2° C., 60%±5% relative humidity) for 10 days respectively. The impurity contents of crystalline forms B and C were determined at various time points (0, 10, 20, and 30 days) by high performance liquid chromatography (HPLC) with peak area normalization.

[2] = Solubility test: dissolution of crystalline form sample in water; type: physicochemical; conditions: 25±5° C.; for dissolubility of samples (300 mg/mL): about 600 mg sample in water (2 mL), ultrasonic vibration, visual check for solute particles; for solubility in water (conclusion from Table 1): 300 mg/mL
Protocol: About 600 mg of a crystalline form sample was added to water (2 mL). The dissolution of the sample was obtained with ultrasonic vibration at 25±5° C. No visible solute particles mean that the sample has a complete dissolution in water; whereas visible solute particles mean that the sample precipitates in water.

[3] = accelerated condition (40±2° C., 75%±5% humidity), 0 day
[4] = accelerated condition (40±2° C., 75%±5% humidity), 10 days
[5] = accelerated condition (40±2° C., 75%±5% humidity), 20 days
[6] = accelerated condition (40±2° C., 75%±5% humidity), 30 days
[7] = high humidity (25±2° C., 90%±5%), 0 day
[8] = high humidity (25±2° C., 90%±5%), 10 days
[9] = high temperature (60±2° C.), 0 day
[10] = high temperature (60±2° C.), 10 days
[11] = high temperature (60±2° C.), 20 days
[12] = high temperature (60±2° C.), 30 days
[13] = illumination condition (visible light 4500 lx±500 lx with UV, 25±2° C., 60%±5% relative humidity), 0 day
[14] = illumination condition (visible light 4500 lx±500 lx with UV, 25±2° C., 60%±5% relative humidity), 10 days
[15] = mediated condition (30±2° C., 65%±5% humidity), 0 day
[16] = mediated condition (30±2° C., 65%±5% humidity), 10 days
[17] = mediated condition (30±2° C., 65%±5% humidity), 20 days
[18] = mediated condition (30±2° C., 65%±5% humidity), 30 days

impurity content by HPLC [1, 3]	impurity content by HPLC [1, 4]	impurity content by HPLC [1, 5]	impurity content by HPLC [1, 6]	impurity content by HPLC [1, 7]	impurity content by HPLC [1, 8]	impurity content by HPLC [1, 9]	impurity content by HPLC [1, 10]	impurity content by HPLC [1, 11]	impurity content by HPLC [1, 12]	stability under the experimental conditions (conclusion from Tables 2 and 3) [1]	impurity content by HPLC [1, 13]	impurity content by HPLC [1, 14]	impurity content by HPLC [1, 15]	impurity content by HPLC [1, 16]	impurity content by HPLC [1, 17]	impurity content by HPLC [1, 18]	solubility in water (conclusion from Table 1) [2]	Compound	dissolubility of samples (300 mg/mL) [2]
0.06%	0.09%	0.08%	0.10%	0.06%	0.06%	0.06%	0.13%	0.20%	0.24%	did not degrade or change	0.06%	0.12%	0.06%	0.10%	0.13%	0.12%	good solubility in water	CCOC(=O)C1=C(CN2CCOCC2)NC(c2nccs2)=NC1c1ccc(F)cc1Br (single isomer, unassigned) [form B, 6[R,S]-ethyl 6-(2-bromo-4-fluorophenyl)-4-(morpholinomethyl)-2-(thiazol-2-yl)-1,6-dihydro pyrimidine-5-carboxylate mesylate]	completely dissolved, some sample precipitated
0.03%	0.04%	0.04%	0.04%	0.03%	0.04%	0.03%	0.06%	0.03%	0.03%	did not degrade or change	0.03%	0.03%	0.03%	0.03%	0.03%	0.03%	good solubility in water	CCOC(=O)C1=C(CN2CCOCC2)NC(c2nccs2)=NC1c1ccc(F)cc1Br (single isomer, unassigned) [form C, 6[R,S]-ethyl 6-(2-bromo-4-fluorophenyl)-4-(morpholinomethyl)-2-(thiazol-2-yl)-1,6-dihydro pyrimidine-5-carboxylate mesylate]	completely dissolved, no sample precipitated
